Data taken from US10280156B2, “Heteroaromatic chalcone derivatives and their medical use” (Medizinische Universität Wien, priority 2014, dated 2019).
pIC50: −log10 of the molar value.

Tests used:
U-2940 = assay: Viability test on U-2940 cells, 48 h; type: cell-based, human; details: Homo sapiens, U-2940, 48 h, 48 h incubation; nd = no significant cytotoxic activity up to 100 μM
Experimental: (§1) JURKAT and CCRF-CEM (T-cell acute lymphoblastic leukemia), HL60 and K562 representing acute and chronic myeloid leukemia, respectively, the chronic lymphocytic leukemia cell line MEC-1, and the diffuse large B-cell lymphoma cell line U-2940 were cultured in Gibco RPMI 1640+GlutaMAX (Life Technologies, Carlsbad, Calif., USA) supplemented with 10% fetal bovine serum gold (FBS gold; PAA Laboratories, Pasching, Austria) and 1% PenStrep (100 U/ml penicillin and 100 μg/ml streptomycin; PAA Laboratories), and maintained at 37° C. in humidified atmosphere with 5% CO2. The diffuse large B-cell lymphoma cell line OCI-LY7 was cultured in Gibco IMDM+GlutaMAX and 25 mM HEPES (Life Technologies) containing 20% FBS gold and 1% PenStrep.
(§2) All experiments with hematological cell lines were done using phenol red-free RPMI 1640+L-glutamine (PAA Laboratories) supplemented with 1% PenStrep and 10% FBS gold, except experiments with OCI-Ly7 which were carried out in Gibco IMEM+GlutaMAX and 25 mM HEPES containing 20% FBS gold and 1% PenStrep. Cells were incubated in triplicates with increasing concentrations of the compounds for 48 h, changes in viability were determined using the cell proliferation and cytotoxicity assays EZ4U (Biomedica Group, Austria) and CellTiter-Blue Cell Viability Assay (Promega, Madison, Wis., USA) following instructions of the manufacturers. IC50 values were calculated from two independent experiments using GraphPad Prism 5 software.
(§3) Initially, compounds were biologically tested in six concentration steps (0.1 μM; 1 μM; 5 μM; 10 μM; 50 μM; and 100 μM) using the CellTiter-Blue Cell Viability Assay (Promega, Madison, Wis., USA) and an incubation time of 48 hours. […] IC50 values were calculated from at least two independent experiments with 3 replicates each. In order to evaluate the biologic activity of the new compounds, cytotoxicity was compared to that of fludarabine, an already approved drug for the treatment of various B-cell malignancies. […] Differences in IC50 values for the different cell types can be explained by the biological and genetic particularities of each subtype of B-cell Non-Hodgkin lymphoma (Stacchini A et al. Leukemia Res 1999, 23, 127-136; Sambade C et al. Int J Cancer 2006, 118, 555-563; Chang H et al. Leukemia lymphoma 1995, 19, 165-171; Tweeddale M E et al. Blood 1987, 69, 1307-1314; Tweeddale M et al. Blood 1989, 74, 572-578).

MEC1 = assay: Viability test (CellTiter-Blue/EZ4U) on MEC1 cells, 48 h; type: cell-based, human; details: Homo sapiens, MEC1, 48 h, 48 h incubation; nd = no significant cytotoxic activity up to 100 μM
Experimental: as §1, §2, §3

M2-10B4 = assay: Viability test on mouse fibroblast cell line M2-10B4, 48 h; type: cell-based; details: for pIC50: Mus musculus, M210B4, 48 h, 48 h incubation, mouse fibroblast cell line
Experimental: as §2
Structurally seen, the small molecule compound 1 represents a typical chalcone scaffold. It is characterized by an ortho-ethoxy-substituted phenyl part as ring A and a 2-naphthyl moiety symbolizing ring B. The focus of the present study was to guide the systematic identification of a growth inhibitor with specificity to neoplastic cells, as cytotoxicity towards healthy cells is mostly associated with adverse effects, which can be related to morbidity and mortality of the patient (Milligan D W et al. Brit J Haematol 2006, 135, 450-474). To discriminate in vitro between structural elements necessary for potent cytotoxicity towards tumor cells which, at the same time, clearly show less activity on normal cells, the compounds were additionally tested on the murine bone marrow fibroblast cell line M2-10B4. This cell line is regularly used as feeder layer when cultured with patient cells providing additional support and survival signals in particular in drug screens (Kurtova A V et al. Blood 2009, 114, 4441-4450).
as §3

OCI-Ly7 = assay: Viability test on OCI-Ly7 cells, 48 h; type: cell-based, human; details: Homo sapiens, OCI-Ly7, 48 h, 48 h incubation; nd = no significant cytotoxic activity up to 100 μM
Experimental: as §1, §2, §3

melting point [°C]	SMILES	pIC50 (U-2940)	pIC50 (MEC1)	pIC50 (M2-10B4)	pIC50 (OCI-Ly7)	cytotoxic potential on M2-10B4 (in words) (M2-10B4; mouse fibroblasts)
–	COc1ccccc1C(=O)/C=C/c1ccc2ccccc2c1 [Compound 2, 1-(2-Methoxyphenyl)-3-(2-naphthyl)-2-propen-1-one]	5.39	6.37	4.38	6.34	–
171 to 173	CCOc1ccc(C(=O)/C=C/c2ccc3[nH]ccc3c2)cc1 [Compound 24, (E)-1-(4-Ethoxyphenyl)-3-(1H-indol-5-yl)-2-propen-1-one]	4.30	4.58	–	4.80	–
127 to 129	CCOc1cccc(C(=O)/C=C/c2cc3ccccc3o2)c1 [Compound 32, (E)-3-(1-Benzofuran-2-yl)-1-(3-ethoxyphenyl)-2-propen-1-one]	4.35	5.16	–	4.78	–
–	C=Cc1cccc(/C=C/C(=O)c2ccccc2OCC)c1 [Compound 8, 3-(3-Ethenylphenyl)-1-(2-ethoxyphenyl)-2-propen-1-one]	5.60	6.70	< 4.00	6.30	did not show any activity
95 to 98	CCOc1ccccc1C(=O)/C=C/c1cc2ccccc2s1 [Compound 27, (E)-3-(1-Benzothiophen-2-yl)-1-(2-ethoxyphenyl)-2-propen-1-one]	5.64	7.22	–	7.15	–
151 to 153	CCOc1ccccc1C(=O)/C=C/c1ccc2[nH]ccc2c1 [Compound 22, (E)-1-(2-Ethoxyphenyl)-3-(1H-indol-5-yl)-2-propen-1-one]	5.77	7.30	–	7.52	–
97 to 100	CCOc1cccc(C(=O)/C=C/c2ccc3ccccc3c2)c1 [Compound 16, 3-(2-Napthyl)-1-(3-ethoxyphenyl)-2-propen-1-one]	4.79	5.55	–	5.75	–
–	Cc1ccccc1C(=O)/C=C/c1ccc2ccccc2c1 [Compound 6, 1-(2-Methylphenyl)-3-(2-naphthyl)-2-propen-1-one]	4.99	5.20	4.14	5.31	–
178 to 181	CCOc1ccc(C(=O)/C=C/c2cc3ccccc3[nH]2)cc1 [Compound 21, 1-(4-Ethoxyphenyl)-3-(1H-indole-2-yl)-2-propen-1-one]	–	–	–	4.60	–
–	CCCCOc1ccccc1C(=O)/C=C/c1ccc2ccccc2c1 [Compound 4, 1-(2-Butoxyphenyl)-3-(2-naphthyl)-2-propen-1-one]	5.27	6.15	< 4.00	6.92	–
129 to 130	CCOc1ccc(C(=O)/C=C/c2csc3ccccc23)cc1 [Compound 19, 3-(1-Benzothien-3-yl)-1-(4-ethoxyphenyl)-2-propen-1-one]	4.84	5.12	–	5.32	–
114 to 116	CCCOc1ccccc1C(=O)/C=C/c1ccc2[nH]ccc2c1 [Compound 25, (E)-3-(1H-indol-5-yl)-1-(2-propoxyphenyl)-2-propen-1-one]	5.15	6.85	–	6.92	–
103 to 106	CCOc1cccc(C(=O)/C=C/c2csc3ccccc23)c1 [Compound 18, 3-(1-Benzothien-3-yl)-1-(3-ethoxyphenyl)-2-propen-1-one]	5.12	5.66	–	5.78	–
112 to 114	CCCOc1ccccc1C(=O)/C=C/c1cc2ccccc2[nH]1 [Compound 26, (E)-3-(1H-indol-2-yl)-1-(2-propoxyphenyl)-2-propen-1-one]	4.99	7.40	–	7.10	–
